Laboratory results published in ChEMBL document CHEMBL1201862, “PubChem BioAssay data set” (2004).
Activity calls are given as the source filed them.

Experiments:
[1] = target: 5-hydroxytryptamine receptor 2A (Mus musculus, UniProt P35363); assay type: functional, cell-based;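 note: CHO-K1 cells with tagged receptor and beta-arrestin; agonist potency measured as compound-induced activation of the receptor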
Mu-type opioid receptor = Mu-type opioid receptor (Homo sapiens, UniProt P35372); assay type: functional, cell-based;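 note: U2OS cells with beta-arrestin recruitment to OPRM1 by beta-gal complementation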
Chain of Mu-type opioid receptor (P35372 whole entry, the tested form may be a part): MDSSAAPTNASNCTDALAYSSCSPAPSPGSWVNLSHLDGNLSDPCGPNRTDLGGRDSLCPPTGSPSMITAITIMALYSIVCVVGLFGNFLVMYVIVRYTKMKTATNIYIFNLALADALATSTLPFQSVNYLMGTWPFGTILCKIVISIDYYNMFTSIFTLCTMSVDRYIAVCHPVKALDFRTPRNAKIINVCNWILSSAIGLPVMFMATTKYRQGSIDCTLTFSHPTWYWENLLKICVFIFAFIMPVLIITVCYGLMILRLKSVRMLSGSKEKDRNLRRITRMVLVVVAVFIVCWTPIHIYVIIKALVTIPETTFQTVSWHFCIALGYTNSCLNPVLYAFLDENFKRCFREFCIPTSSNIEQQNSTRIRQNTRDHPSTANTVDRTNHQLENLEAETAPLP

[2] = target: T1, Sentrin-specific protease 1 (Homo sapiens, UniProt Q9P0U3); test: Dose response confirmation of small molecule inhibitors of the catalytic domain of the SUMO protease, SENP1 in a FRET assay.; assay type: functional; details: read-out: IC50_Mean
T1 sequence (Q9P0U3 whole entry, the tested form may be a part): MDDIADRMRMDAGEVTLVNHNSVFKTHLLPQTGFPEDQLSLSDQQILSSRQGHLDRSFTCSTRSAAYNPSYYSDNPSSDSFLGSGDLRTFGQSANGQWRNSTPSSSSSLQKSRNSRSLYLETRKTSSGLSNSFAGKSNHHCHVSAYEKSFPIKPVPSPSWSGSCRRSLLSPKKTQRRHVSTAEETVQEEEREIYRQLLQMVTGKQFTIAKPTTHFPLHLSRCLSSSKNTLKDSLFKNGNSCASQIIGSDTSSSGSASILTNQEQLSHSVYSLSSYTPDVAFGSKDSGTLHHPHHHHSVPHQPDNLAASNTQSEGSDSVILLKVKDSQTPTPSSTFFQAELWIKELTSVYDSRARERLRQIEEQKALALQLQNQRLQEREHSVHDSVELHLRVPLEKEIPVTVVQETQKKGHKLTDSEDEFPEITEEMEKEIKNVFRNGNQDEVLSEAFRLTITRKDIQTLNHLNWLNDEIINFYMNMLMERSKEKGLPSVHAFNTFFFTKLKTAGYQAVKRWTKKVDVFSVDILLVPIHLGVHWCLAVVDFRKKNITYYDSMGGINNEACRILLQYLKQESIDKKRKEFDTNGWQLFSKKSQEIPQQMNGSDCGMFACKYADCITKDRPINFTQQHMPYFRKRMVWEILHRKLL

[3] = target: T2, Zinc finger protein mex-5 (Caenorhabditis elegans, UniProt Q9XUB2); test: MEX-5/TCR-2 RNA interaction inhibitors, dose response, biochemical, C. elegans, fluorescence polarization (AID 1960)
T2 sequence (Q9XUB2 whole entry): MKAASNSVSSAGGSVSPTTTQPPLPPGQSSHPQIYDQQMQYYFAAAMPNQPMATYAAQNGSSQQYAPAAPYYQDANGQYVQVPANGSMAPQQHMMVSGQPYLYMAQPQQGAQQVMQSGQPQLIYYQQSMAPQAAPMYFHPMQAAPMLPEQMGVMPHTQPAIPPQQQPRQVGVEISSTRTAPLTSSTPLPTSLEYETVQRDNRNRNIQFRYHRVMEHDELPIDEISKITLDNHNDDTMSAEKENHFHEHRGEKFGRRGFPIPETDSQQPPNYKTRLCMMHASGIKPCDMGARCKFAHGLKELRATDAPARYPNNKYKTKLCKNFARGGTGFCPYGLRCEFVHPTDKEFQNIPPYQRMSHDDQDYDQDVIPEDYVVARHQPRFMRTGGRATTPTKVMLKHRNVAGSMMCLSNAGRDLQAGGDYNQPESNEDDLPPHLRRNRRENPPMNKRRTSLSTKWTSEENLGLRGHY

[4] = target: T3, Endoribonuclease toxin MazF (Escherichia coli K-12, UniProt P0AE70); test: fluorescent RNA oligo signal without MazF, dose response, counter-screen for MazEF activator project, biochemical, fluorescence, single-stranded RNase substrate (AID 588502); assay type: functional
T3 sequence (P0AE70 whole entry): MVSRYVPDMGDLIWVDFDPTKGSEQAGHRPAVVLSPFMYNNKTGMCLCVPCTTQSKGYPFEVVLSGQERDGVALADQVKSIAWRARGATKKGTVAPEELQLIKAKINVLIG

[5] = target: T3, Endoribonuclease toxin MazF; test: MazF toxin RNase activators, dose response, biochemical, fluorescence, single-stranded RNA substrate, uHTS hits (AID 588481); assay type: functional
[6] = target: T1, Sentrin-specific protease 1; test: potency of human SENP1 inhibitors, dose response, biochemical, kinetic FRET (AID 651697); assay type: functional; details: read-out: IC50_Mean
[7] = target: T4, RNA-binding protein pos-1 (Caenorhabditis elegans, UniProt G5EF15); test: inhibitors of POS-1/mex-3 RNA binding, dose response, biochemical, fluorescence polarization (AID 1964);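 note: purified POS-1 fused to maltose binding protein made in E. coli; potency of compounds blocking POS-1 binding to fluorescent RNA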
T4 sequence (G5EF15 whole entry): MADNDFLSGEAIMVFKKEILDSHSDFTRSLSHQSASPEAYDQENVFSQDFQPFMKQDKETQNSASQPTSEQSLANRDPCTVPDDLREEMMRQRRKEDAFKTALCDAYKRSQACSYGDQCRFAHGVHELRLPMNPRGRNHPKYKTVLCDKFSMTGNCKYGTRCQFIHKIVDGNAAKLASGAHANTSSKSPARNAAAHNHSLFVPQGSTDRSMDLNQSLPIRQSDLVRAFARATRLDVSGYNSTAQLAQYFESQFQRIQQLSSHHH

[8] = target: T5, Low molecular weight phosphotyrosine protein phosphatase (Homo sapiens, UniProt P24666); assay type: functional; details: read-out: IC50_Mean
T5 sequence (P24666 whole entry): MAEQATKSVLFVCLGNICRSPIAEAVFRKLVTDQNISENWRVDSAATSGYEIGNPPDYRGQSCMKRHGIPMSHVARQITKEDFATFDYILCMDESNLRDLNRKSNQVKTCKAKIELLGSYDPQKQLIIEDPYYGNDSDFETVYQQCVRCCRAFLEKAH

[9] = target: T6, Sentrin-specific protease 6 (Homo sapiens, UniProt Q9GZR1); assay type: functional;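 note: Luminescence-based dose-response confirmatory assay of SENP6 inhibition, following up an ultra-high-throughput screen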
T6 sequence (Q9GZR1 whole entry): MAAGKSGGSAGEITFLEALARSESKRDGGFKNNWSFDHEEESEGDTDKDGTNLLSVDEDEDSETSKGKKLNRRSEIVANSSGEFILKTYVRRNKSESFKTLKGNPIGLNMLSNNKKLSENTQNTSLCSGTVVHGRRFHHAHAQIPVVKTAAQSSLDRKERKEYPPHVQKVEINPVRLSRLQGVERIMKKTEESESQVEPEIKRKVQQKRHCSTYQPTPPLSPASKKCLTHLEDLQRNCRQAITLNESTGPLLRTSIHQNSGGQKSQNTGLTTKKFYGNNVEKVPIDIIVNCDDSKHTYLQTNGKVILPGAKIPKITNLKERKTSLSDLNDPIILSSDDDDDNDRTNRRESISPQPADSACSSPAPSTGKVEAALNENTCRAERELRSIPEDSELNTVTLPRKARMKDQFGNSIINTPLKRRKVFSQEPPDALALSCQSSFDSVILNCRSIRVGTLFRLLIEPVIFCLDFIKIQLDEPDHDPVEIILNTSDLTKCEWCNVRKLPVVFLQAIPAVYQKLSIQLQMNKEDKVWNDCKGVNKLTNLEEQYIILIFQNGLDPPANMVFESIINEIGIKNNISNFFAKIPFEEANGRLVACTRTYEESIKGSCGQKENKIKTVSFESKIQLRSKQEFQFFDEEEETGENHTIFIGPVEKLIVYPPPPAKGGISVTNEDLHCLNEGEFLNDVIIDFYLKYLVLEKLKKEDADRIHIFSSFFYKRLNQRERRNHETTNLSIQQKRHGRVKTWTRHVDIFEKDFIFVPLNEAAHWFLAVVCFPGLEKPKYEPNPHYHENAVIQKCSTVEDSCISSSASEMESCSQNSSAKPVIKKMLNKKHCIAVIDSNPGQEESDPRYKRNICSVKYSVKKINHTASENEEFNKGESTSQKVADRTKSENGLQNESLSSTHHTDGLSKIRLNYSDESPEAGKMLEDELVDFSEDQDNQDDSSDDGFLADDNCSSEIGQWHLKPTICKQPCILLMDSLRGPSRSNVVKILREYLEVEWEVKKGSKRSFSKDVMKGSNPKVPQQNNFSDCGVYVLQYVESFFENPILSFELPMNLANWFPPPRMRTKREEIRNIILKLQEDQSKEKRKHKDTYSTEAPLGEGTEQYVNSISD

[10] = target: T5, Low molecular weight phosphotyrosine protein phosphatase; assay type: functional; details: read-out: IC50_Mean; remark: listed apart in the source
[11] = target: T7, Tyrosine-protein phosphatase non-receptor type 22 (Homo sapiens, UniProt Q9Y2R2); test: LYP phosphatase inhibition for selectivity, dose response, selectivity assay for LMPTP inhibitor project, biochemical, fluorescence, LYP catalytic domain (AID 652006); assay type: functional; details: read-out: IC50_Mean
T7 sequence (Q9Y2R2 whole entry): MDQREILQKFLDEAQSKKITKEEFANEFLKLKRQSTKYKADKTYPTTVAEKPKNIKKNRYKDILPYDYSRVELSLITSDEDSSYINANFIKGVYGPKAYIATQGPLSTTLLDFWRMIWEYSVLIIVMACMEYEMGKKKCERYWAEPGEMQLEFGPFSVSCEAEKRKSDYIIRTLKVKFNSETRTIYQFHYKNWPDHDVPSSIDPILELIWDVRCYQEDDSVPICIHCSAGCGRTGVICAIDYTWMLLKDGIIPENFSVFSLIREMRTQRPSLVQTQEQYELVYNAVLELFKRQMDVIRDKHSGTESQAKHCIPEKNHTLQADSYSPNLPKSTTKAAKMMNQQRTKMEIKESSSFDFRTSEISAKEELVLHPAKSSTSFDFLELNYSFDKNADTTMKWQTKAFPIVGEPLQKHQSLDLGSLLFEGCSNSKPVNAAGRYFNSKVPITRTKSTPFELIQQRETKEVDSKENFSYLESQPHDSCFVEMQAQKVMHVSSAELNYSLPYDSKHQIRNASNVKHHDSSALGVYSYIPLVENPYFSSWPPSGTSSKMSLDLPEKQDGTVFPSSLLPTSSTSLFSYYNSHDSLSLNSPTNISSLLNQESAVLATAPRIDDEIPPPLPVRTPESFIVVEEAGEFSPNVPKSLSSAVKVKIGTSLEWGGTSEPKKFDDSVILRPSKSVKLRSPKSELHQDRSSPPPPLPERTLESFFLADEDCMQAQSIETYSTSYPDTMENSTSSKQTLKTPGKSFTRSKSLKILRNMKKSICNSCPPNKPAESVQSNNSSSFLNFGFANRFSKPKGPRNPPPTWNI

[12] = target: T8, Sentrin-specific protease 7 (Homo sapiens, UniProt Q9BQF6); assay type: functional;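 note: Luminescence-based dose-response confirmation of ultra-high-throughput screening hits, measuring inhibition of SENP7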
T8 sequence (Q9BQF6 whole entry): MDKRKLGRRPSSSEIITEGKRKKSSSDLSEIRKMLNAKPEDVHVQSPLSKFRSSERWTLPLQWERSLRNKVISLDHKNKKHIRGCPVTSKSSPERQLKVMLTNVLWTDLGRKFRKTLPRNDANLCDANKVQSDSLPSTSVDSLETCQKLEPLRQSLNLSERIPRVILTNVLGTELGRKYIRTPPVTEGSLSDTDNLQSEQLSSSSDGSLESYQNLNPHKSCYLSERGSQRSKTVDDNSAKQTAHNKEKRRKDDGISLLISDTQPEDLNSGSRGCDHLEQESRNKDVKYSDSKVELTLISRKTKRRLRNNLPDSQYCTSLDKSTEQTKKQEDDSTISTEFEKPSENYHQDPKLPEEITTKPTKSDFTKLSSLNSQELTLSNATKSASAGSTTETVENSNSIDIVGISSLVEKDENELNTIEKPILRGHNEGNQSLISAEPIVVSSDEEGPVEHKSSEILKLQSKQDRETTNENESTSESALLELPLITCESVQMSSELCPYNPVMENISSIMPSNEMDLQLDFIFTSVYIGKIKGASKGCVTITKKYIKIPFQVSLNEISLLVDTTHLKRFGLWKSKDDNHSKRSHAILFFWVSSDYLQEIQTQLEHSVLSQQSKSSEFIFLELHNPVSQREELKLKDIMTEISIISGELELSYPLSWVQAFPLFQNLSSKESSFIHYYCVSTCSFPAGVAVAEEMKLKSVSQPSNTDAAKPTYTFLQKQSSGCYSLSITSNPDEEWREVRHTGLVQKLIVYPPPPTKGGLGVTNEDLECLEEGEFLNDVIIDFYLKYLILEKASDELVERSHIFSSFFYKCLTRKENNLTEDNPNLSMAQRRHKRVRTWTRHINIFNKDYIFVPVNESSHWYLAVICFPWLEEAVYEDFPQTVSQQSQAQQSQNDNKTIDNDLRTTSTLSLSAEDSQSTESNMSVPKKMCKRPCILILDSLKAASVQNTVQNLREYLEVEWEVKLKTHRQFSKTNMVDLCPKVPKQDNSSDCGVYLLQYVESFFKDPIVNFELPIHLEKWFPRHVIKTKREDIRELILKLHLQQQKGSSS

Caspase-3 = target: T9, Caspase-3 (Homo sapiens, UniProt P42574); assay type: functional;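 note: Dose-response selectivity test against caspase-3 for candidate inhibitors of sentrin-specific proteases (SENPs)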
T9 sequence (P42574 whole entry): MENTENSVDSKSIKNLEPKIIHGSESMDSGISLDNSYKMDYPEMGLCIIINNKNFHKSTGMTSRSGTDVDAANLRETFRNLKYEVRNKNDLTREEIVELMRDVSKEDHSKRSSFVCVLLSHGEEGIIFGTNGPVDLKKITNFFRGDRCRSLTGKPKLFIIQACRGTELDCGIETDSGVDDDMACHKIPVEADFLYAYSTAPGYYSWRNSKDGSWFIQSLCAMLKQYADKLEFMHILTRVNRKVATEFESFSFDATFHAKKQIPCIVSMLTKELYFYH

[13] = target: T10, Sentrin-specific protease 8 (Homo sapiens, UniProt Q96LD8); assay type: functional;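 note: luminescence read-out of SENP8 inhibition, dose-response confirmation following an ultra-high-throughput screen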
T10 sequence (Q96LD8 whole entry): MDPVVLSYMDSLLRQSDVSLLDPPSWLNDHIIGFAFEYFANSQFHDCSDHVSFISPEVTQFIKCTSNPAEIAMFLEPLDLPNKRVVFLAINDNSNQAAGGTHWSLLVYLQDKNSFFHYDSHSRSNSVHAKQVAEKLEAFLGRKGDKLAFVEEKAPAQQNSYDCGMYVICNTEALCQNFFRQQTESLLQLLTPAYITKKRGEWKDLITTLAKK

[14] = target: Broad substrate specificity ATP-binding cassette transporter ABCG2 (Homo sapiens, UniProt Q9UNQ0); test: ABCG2 efflux pump inhibitors, dose response, Ig-MXP3 cells, flow cytometry (AID 1690); assay type: functional
Chain of Broad substrate specificity ATP-binding cassette transporter ABCG2 (Q9UNQ0 whole entry): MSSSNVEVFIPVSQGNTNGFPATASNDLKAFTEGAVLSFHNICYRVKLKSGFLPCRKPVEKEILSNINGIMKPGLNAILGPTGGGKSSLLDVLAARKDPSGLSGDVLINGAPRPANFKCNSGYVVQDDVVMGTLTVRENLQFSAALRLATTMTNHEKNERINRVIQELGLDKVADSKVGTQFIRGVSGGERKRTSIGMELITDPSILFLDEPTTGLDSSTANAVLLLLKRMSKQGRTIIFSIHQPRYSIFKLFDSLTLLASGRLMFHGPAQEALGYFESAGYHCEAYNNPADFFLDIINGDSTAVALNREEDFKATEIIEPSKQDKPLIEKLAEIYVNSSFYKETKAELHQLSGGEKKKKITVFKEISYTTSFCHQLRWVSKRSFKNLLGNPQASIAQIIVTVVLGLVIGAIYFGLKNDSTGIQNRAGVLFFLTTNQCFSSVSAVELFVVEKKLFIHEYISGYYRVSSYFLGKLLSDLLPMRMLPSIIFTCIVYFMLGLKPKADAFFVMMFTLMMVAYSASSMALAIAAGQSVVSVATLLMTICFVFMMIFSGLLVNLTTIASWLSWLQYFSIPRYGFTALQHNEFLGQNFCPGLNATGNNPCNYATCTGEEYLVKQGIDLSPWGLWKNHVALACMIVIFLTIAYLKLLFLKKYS

[15] = target: ATP-dependent translocase ABCB1 (Homo sapiens, UniProt P08183); test: ABCB1 efflux pump inhibitor potency, dose response, Jurkat-DNR cells, JC-1, flow cytometry (AID 1689); assay type: functional
Chain of ATP-dependent translocase ABCB1 (P08183 whole entry): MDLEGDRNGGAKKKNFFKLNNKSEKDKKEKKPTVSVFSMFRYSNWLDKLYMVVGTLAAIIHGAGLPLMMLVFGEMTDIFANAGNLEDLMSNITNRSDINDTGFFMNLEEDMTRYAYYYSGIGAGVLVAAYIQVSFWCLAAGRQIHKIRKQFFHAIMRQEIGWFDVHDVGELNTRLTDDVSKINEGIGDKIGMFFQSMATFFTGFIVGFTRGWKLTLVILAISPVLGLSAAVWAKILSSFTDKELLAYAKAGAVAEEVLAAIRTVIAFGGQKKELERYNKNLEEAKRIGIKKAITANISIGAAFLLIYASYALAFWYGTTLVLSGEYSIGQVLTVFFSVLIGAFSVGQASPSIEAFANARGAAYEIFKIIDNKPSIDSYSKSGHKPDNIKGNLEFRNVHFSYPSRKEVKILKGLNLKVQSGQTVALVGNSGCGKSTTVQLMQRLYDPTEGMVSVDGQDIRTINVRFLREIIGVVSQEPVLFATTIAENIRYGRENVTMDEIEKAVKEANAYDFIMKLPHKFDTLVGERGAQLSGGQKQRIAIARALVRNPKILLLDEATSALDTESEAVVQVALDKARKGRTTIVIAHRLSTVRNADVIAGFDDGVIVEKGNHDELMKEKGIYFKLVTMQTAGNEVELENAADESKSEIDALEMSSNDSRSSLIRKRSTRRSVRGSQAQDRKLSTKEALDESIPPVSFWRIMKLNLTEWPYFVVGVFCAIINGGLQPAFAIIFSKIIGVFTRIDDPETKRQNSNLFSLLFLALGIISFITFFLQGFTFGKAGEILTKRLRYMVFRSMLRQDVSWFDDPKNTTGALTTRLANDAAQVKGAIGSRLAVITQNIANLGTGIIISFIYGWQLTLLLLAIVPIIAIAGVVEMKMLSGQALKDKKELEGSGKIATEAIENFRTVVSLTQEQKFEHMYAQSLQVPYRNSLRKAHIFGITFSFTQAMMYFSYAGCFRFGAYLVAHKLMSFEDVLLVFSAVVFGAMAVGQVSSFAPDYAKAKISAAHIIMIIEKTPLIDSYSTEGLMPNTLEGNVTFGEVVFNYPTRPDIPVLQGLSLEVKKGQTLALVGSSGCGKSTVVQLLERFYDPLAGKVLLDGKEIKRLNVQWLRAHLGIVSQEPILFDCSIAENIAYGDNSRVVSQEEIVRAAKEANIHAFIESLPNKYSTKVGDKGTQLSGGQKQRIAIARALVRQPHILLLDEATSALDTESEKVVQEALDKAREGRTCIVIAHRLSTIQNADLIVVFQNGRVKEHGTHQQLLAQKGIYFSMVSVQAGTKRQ

Beta-lactamase [16] = target: T11, Beta-lactamase (Pseudomonas aeruginosa, UniProt Q79MP6); test: […] counterscreen for selective VIM-2 inhibitors: dose response biochemical high throughput screening assay to identify inhibitors of IMP-1 metallo-beta-lactamase.
T11 sequence (Q79MP6 whole entry): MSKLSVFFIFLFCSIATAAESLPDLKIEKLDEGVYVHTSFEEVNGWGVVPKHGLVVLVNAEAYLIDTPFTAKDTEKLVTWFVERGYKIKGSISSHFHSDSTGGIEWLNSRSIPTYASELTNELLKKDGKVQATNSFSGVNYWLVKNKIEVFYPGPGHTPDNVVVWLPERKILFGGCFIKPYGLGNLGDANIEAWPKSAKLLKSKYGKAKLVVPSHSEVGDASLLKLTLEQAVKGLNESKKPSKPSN

Beta-lactamase [17] = target: T11, Beta-lactamase; test: IMP-1 metallo-beta-lactamase inhibitors, dose response, selectivity assay for VIM-2 inhibitor project, biochemical, epi-absorbance (AID 1920)
Beta-lactamase [18] = target: Beta-lactamase (Salmonella choleraesuis (strain SC-B67), UniProt Q5J463); test: Epi-absorbance-based counterscreen for selective VIM-2 inhibitors: dose response biochemical high throughput screening assay to identify inhibitors of TEM-1 serine-beta-lactamase.
Chain of Beta-lactamase (Salmonella choleraesuis (strain SC-B67), UniProt Q5J463) (Q5J463 whole entry): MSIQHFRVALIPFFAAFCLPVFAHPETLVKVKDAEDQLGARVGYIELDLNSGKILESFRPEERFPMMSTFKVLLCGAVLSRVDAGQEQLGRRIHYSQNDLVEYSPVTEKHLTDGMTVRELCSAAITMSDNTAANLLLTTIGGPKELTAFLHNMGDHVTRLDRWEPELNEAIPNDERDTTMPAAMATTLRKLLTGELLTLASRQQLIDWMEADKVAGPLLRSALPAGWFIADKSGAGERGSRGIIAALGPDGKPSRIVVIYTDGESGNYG

Chain of 5-hydroxytryptamine receptor 2A (P35363 whole entry): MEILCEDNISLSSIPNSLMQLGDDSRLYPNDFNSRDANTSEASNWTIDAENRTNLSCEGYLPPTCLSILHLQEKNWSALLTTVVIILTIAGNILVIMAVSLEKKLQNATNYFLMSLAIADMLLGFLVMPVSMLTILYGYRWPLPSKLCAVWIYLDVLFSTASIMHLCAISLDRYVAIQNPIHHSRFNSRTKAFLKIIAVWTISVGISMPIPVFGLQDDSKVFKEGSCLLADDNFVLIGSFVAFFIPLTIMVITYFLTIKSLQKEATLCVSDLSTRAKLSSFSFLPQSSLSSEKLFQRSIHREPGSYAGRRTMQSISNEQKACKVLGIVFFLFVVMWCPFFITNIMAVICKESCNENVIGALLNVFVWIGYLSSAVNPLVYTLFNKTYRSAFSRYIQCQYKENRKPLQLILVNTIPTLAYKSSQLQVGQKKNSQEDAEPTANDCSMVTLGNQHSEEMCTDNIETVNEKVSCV

O=C(C1CCN(CCCc2ccccc2)CC1)N1CCCCC1
EC50 [1]: 76.1 µM (inactive)
EC50 (Mu-type opioid receptor): 92.5 µM (inactive)

COc1ccc2c(c1)c1nc3ccccc3nc1n2Cc1ccc(OC)c(OC)c1
IC50 [2]: 6.84 µM (active)
EC50 [3]: 43.1 µM (active)
EC50 [4]: 87.9 µM (inactive)
EC50 [5]: > 99 µM (inactive)
IC50 [6]: 14.1 µM (active)
EC50 [7]: 32.6 µM (active)

O=C(/C=C/c1ccc(Br)cc1)NC(=O)c1ccccc1O
IC50 [8]: 22.2 µM (inactive)
IC50 [9]: 15.2 µM (active)
IC50 [10]: 9.98 µM (active)
IC50 [11]: 43.6 µM (inactive)
IC50 [12]: 8.1 µM (active)
IC50 (Caspase-3): > 100 µM (inactive)
IC50 [13]: 26.9 µM (active)

N#Cc1ccc(-c2ccc(OCC(=O)NCCc3ccccc3)cc2)cc1
EC50 [14]: 3.76 µM (active)
EC50 [15]: 11.1 µM (inactive)

CC1=C(C(=O)O)N2C(=O)C(NC(=O)c3nn(C)cc3[N+](=O)[O-])C2SC1 (stereo not given)
IC50 (Beta-lactamase [16]): > 59.6 µM (inactive)
IC50 (Beta-lactamase [17]): > 59.6 µM (inactive)
IC50 (Beta-lactamase [18]): > 59.6 µM (inactive)
